# Test: immunosuppressive activity compared with rapamycin (no test described)
# Conditions: relative to rapamycin; qualitative statement, no method or data given
compound,measurement,value
COC1CC(CC(C)C2CC(=O)C(C)C=C(C)C(O)CC(=O)C(C)CC(C)C=CC=CC=C(C)C(O)CC3CCC(C)C(O)(O3)C(=O)C(=O)N3CCCCC3C(=O)O2)CCC1O (stereo not shown) [16-desmethyl-27-desmethoxyrapamycin],immunosuppressive activity,lower immunosuppressive activity than rapamycin

# Reference: patent US6670168B1, “Recombinant Streptomyces hygroscopicus host cells that produce 17-desmethylrapamycin” (Kosan Bioscience, Inc., priority 1999, dated 2003)
